Experimental data: ChEMBL document CHEMBL5726172, “Spiro-cyclic amine derivatives as S1P modulators” (2019)

Molecular target: Sphingosine 1-phosphate receptor 5 (Homo sapiens, UniProt Q9H228)
Assay: In Vitro Functional Activity (Agonism) on Human S1P5 Receptors: The CHO-human-S1P5-Aeqorin assay was bought from Euroscreen, Brussels (Euroscreen, Technical dossier, Human Lysophospholid S1P5 (Edg8) receptor, DNA clone and CHO AequoScreen™ recombinant cell-line, catalog no: ES-593-A, September 2006). Human-S1P5-Aequorin cells express mitochondrial targeted apo-Aequorin. Cells have to be loaded with coelanterazine, in order to reconstitute active Aequorin. After binding of agonists to the human S1P5 receptor the intracellular calcium concentration increases and binding of calcium to the apo-Aequorin/coelenterazine complex leads to an oxidation reaction of coelenterazine, which results in the production of apo-Aequorin, coelenteramide, CO2 and light ([…]max 469 nm). This luminescent response is dependent on the agonist concentration. Luminescence is measured using the MicroBeta Jet (Perkin Elmer). Agonistic effects of compounds are expressed as pEC50. Compounds were tested at a 10 points half log concentration range, and 3 independent experiments were performed in single point's measurements.
Type: cell-based

Sequence of Sphingosine 1-phosphate receptor 5 (Q9H228 whole entry): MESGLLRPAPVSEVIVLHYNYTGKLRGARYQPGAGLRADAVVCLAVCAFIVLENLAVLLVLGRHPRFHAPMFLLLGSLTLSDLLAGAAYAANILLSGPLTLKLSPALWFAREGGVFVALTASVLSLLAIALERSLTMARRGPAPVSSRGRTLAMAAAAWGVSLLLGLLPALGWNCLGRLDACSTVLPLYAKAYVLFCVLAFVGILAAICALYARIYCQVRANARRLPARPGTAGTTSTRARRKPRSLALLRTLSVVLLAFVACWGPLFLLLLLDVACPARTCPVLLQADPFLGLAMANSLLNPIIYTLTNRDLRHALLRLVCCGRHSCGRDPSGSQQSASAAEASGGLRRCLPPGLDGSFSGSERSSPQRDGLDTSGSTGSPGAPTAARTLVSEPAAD

| SMILES | EC50 |
| --- | --- |
| CC(C)c1cccc(F)c1COc1ccc2c(c1)OCC21CCN(CCC(=O)O)CC1 | 50.1 nM |
| O=C(O)CCN1CCCC2(COc3cc(OCc4c(Cl)cccc4C(F)(F)F)ccc32)C1 (configuration not stated) | 50.1 nM |
